Among the data in patent publication EP1101821A1, “NOVEL PROTEIN AND ITS DNA” (Takeda Chemical Industries, Ltd., priority 1998, dated 2000) are IC50 values, retold here.

The target of the experiment is recombinant human lung-derived phosphodiesterase V (Homo sapiens, UniProt O76074). Nature of the experiment: Inhibitor screening system: [3H]cGMP SPA phosphodiesterase enzyme assay.

Description: A 96-well microplate (OPTI Plate, Packard) received 10 µL of a buffer solution [0.5M Tris-HCl (pH7.5), 83 mM MgCl2, 17 mM EGTA], 10 µL of the recombinant human lung-derived phosphodiesterase V obtained in Example 3 (0.025 mg/ml), 65 µL of an ultrapure water, 5 µL of an inhibitor sample and 10 µL of [^3H]cGMP, and reacted at 30°C for 30 minutes. After completion of the reaction, 50 µL of a SPA beads solution [18 mg/ml Yttrium silicate beads, 18 mM ZnSO4] was added and allowed to stand at room temperature for about 20 minutes, and then subjected to a scintillation counting (Topcount, Packard).

The IC50 is the concentration that inhibits the measured activity by half. Take `Cc1c2c(c(-c3ccc(F)cc3)c3c4c(ccc13)OCO4)C(=O)NC2=O` [Formula 1]: the concentration for half-maximal inhibition (IC50) came to 2.29 nM.
